Measured values reported in patent US20220110910A1, “CANNABINOID-CONTAINING COMPLEX MIXTURES FOR THE TREATMENT OF CYTOKINE RELEASE SYNDROME WHILE PRESERVING KEY ANTI-VIRAL IMMUNE REACTIONS” (GBS Global BioPharma, Inc., priority 2020, published 2022).
“Also recorded” adds a separate entry of the source.

Key:
Assay type in all cases: cell-based, human
CD8+ T cells [1] = experiment: Intracellular IFNγ after anti-CD3/anti-CD28 stimulation and PMA/ionomycin; settings: vs vehicle
Method: (§1) In immunological activity experiments, PBMC suspensions were pre-treated with cannabinoid and/or terpene compounds for 30 minutes before treatment with designated stimuli, cultured in 96 well tissue culture plates, and incubated at 37° C. and 5.0% CO2. In pDC experiments, cell suspensions were stimulated with CpG-ODN Type A 2216 (15 μg/mL) (InvivoGen©, San Diego, Calif.) following treatment with cannabinoids. Golgi transport inhibitors Monensin (2 μM)/Brefeldin A (3.0 μg/mL) (Thermo Fisher Scientific, Waltham, Mass.) were added to culture 3 hours post-stimulation, and after 7 hours of stimulation cells were harvested for evaluation by flow cytometry for IFNα and TNFα. In monocyte experiments, cell suspensions were stimulated with 1000 ng/mL LPS (S. typhosa, Sigma Aldrich, St. Louis, Mo.) for 18 hours before harvesting supernatants for IL-1β, Golgi blocked for 6 hours before harvesting cells for assessment of IL-6, or cultured for 48 hours before harvesting cells for assessment of HLA-DR, CD80, and CD86. In phagocytosis experiments, cell suspensions were treated with 3.0 mg/mL of pHrodo Green BioParticles (Thermo Fisher). In T cell experiments, cells were plated on 96 well tissue culture plates pre-coated with 5.0 μg/mL anti-CD3 (clone UCHT1, Biolegend, San Diego, Calif.) and stimulated with 5.0 μg/mL anti-CD28 (clone 28.2, Biolegend) and supplemented with 5.0 ng/mL IL-2 (Roche Applied Science, Indianapolis, Ind.). CD25 and CD69 were assessed by flow cytometry 24 hours post-stimulation. In proliferation experiments, cell suspensions were incubated with CFSE Cell Division Tracker (Biolegend) according to manufacturer protocols, harvested 4 days post-stimulation and assessed by flow cytometry. Cell suspensions were further stimulated with 50 ng/mL phorbol 12-myristate 13-acetate (PMA) and 1000 ng/mL ionomycin (Io) at 4 days post-stimulation for 18 hours, Golgi blocked for 6 hours, and harvested for IL-4 and IFNγ assessment by flow cytometry.
(§2) In brief, pDC, monocyte and T cell were identified using antibodies directed against unique epitopes for each cell type and analyzed by flow cytometry. Cells were fixed in BD CytoFix and resuspended in FACS buffer for extracellular staining. […] For intracellular staining, fixed cells were permeabilized in BD Permwash and incubated with appropriate antibodies and 7% human AB serum. pDC were identified as CD303+and assessed for intracellular IFNα and TNFα. Monocytes were identified as CD14+ and assessed for extracellular HLA-DR, CD80, CD86, and intracellular TNFα and IL-6. […] T cells were identified as CD3+ and T cell subsets identified by CD4+ and CD8+ and assessed for extracellular CD25 and CD69 and intracellular IFNγ and IL-4. […]

monocytes [2] = experiment: TNFα+ monocytes after CpG-ODN stimulation (intracellular staining); settings: CpG-ODN 15 μg/mL, 6 hours, vs vehicle
Method: FIGS. 9A-9B reveal the TNFα decreasing potential of cannabinol (CBN). […] PBMC were isolated from human peripheral blood and pre-treated with the indicated concentrations of cannabinol for 30 minutes, followed by stimulation with 15 μg/mL CpG-ODN for 6 hours (FIG. 9A). Cells were non-enzymatically released from culture plates and assessed for the percentage of TNFα+ monocytes (FIG. 9A) by intracellular staining. For FIG. 9B, PBMC were isolated from human peripheral blood and pre-treated with the indicated concentrations of cannabinol for 30 minutes, followed by treatment with 3.0 mg/mL of pHrodo Green BioParticles (FIG. 9B). In FIG. 9B, cells were treated with 3.0 mg/mL of pHrodo Green BioParticles and assessed for phagocytosis monocytes by flow cytometry within 2 hours. Data are normalized to each donor's vehicle control when appropriate and presented as mean±SEM. N=4-6 donors per treatment group. […] *p<0.05 when compared to VH (FIG. 9A), or **p<0.01 when compared to VH (FIG. 9B), by repeated measure one-way ANOVA with Dunnett's posttest.
as §2

monocytes [3] = experiment: Phagocytosis of pHrodo Green BioParticles by monocytes; settings: 10 μM; pHrodo Green BioParticles 3.0 mg/mL; vs vehicle
Method: as §1, with “In T cell experiments, cells were plated on 96 well tissue culture plates pre-coated with 5.0 μg/mL anti-CD3 (clone UCHT1, Biolegend, San Diego, Calif.) and stimulated with 5.0 μg/mL anti-CD28 (clone 28.2, Biolegend) and supplemented with 5.0 ng/mL IL-2 (Roche Applied Science, Indianapolis, Ind.).” left out, “Cell suspensions were further stimulated with 50 ng/mL phorbol 12-myristate 13-acetate (PMA) and 1000 ng/mL ionomycin (Io) at 4 days post-stimulation for 18 hours, Golgi blocked for 6 hours, and harvested for IL-4 and IFNγ assessment by flow cytometry.” left out
as §2, with “cytometry.” for “cytometry. Cells were fixed in BD CytoFix and resuspended in FACS buffer for extracellular staining.”

CD4+ T cells [4] = experiment: Intracellular IFNγ and IL-4 after anti-CD3/anti-CD28 stimulation and PMA/ionomycin; settings: vs vehicle
Method: as §1, §2

CD8+ T cells [5] = experiment: T cell activation markers CD25 and CD69, 24 hours post-stimulation; settings: 10 μM
Method: as §1, with “In T cell experiments, cells were plated on 96 well tissue culture plates pre-coated with 5.0 μg/mL anti-CD3 (clone UCHT1, Biolegend, San Diego, Calif.) and stimulated with 5.0 μg/mL anti-CD28 (clone 28.2, Biolegend) and supplemented with 5.0 ng/mL IL-2 (Roche Applied Science, Indianapolis, Ind.).” left out, “Cell suspensions were further stimulated with 50 ng/mL phorbol 12-myristate 13-acetate (PMA) and 1000 ng/mL ionomycin (Io) at 4 days post-stimulation for 18 hours, Golgi blocked for 6 hours, and harvested for IL-4 and IFNγ assessment by flow cytometry.” left out
as §2, with “cytometry.” for “cytometry. Cells were fixed in BD CytoFix and resuspended in FACS buffer for extracellular staining.”

monocytes [6] = experiment: IL-6+ monocytes after LPS stimulation (intracellular staining); settings: LPS 1000 ng/mL, vs vehicle
Method: as §1, with “In T cell experiments, cells were plated on 96 well tissue culture plates pre-coated with 5.0 μg/mL anti-CD3 (clone UCHT1, Biolegend, San Diego, Calif.) and stimulated with 5.0 μg/mL anti-CD28 (clone 28.2, Biolegend) and supplemented with 5.0 ng/mL IL-2 (Roche Applied Science, Indianapolis, Ind.).” left out, “Cell suspensions were further stimulated with 50 ng/mL phorbol 12-myristate 13-acetate (PMA) and 1000 ng/mL ionomycin (Io) at 4 days post-stimulation for 18 hours, Golgi blocked for 6 hours, and harvested for IL-4 and IFNγ assessment by flow cytometry.” left out
as §2, with “cytometry.” for “cytometry. Cells were fixed in BD CytoFix and resuspended in FACS buffer for extracellular staining.”

monocytes [7] = experiment: Co-stimulatory markers HLA-DR, CD80, CD86 on monocytes after LPS; settings: 2 days, vs vehicle
Method: as §1
In brief, pDC, monocyte and T cell were identified using antibodies directed against unique epitopes for each cell type and analyzed by flow cytometry. Cells were fixed in BD CytoFix and resuspended in FACS buffer for extracellular staining. To determine the changes in cell viability in mixed PBMC, gates were first set on singlet events, then CD45+ cells, then populations identified by CD3+ (T cells) and CD14+ (monocytes), and then 7-AAD- for viability. Likewise, for pDC viability experiments, pDC were identified as CD303+ and viable by exclusion of Near IR L/D stain (Life Technologies, Carlsbad, Calif.). For intracellular staining, fixed cells were permeabilized in BD Permwash and incubated with appropriate antibodies and 7% human AB serum. pDC were identified as CD303+and assessed for intracellular IFNα and TNFα. Monocytes were identified as CD14+ and assessed for extracellular HLA-DR, CD80, CD86, and intracellular TNFα and IL-6. In phagocytosis experiments, PBMC were identified as CD45+ and monocytes were identified based on side scatter and then phagocytosing monocytes. T cells were identified as CD3+ and T cell subsets identified by CD4+ and CD8+ and assessed for extracellular CD25 and CD69 and intracellular IFNγ and IL-4. To analyze T cell proliferation, FlowJo 10.0 proliferation tool was used by setting the undivided peak of CFSE stained cells in each sample.

monocytes [8] = experiment: IL-1β ELISA in supernatants of LPS-stimulated PBMC; settings: LPS 1000 ng/mL, vs vehicle
Method: as §1
To quantify IL-1β produced by monocytes, supernatants were collected from LPS stimulated cell suspensions after 18 hours and frozen at −80° C. ELISA MAX from Biolegend was used as per manufacturer protocol to quantify IL-1β to a sensitivity of […].

CD8+ T cells [9] = experiment: T cell proliferation (CFSE, FlowJo Proliferation tool); settings: increasing concentration up to 10 μM
Method: as §1, §2

CD4+ T cells [10] = experiment: as above; settings: 10 μM
Method: as §1, §2

## CCCCCc1cc(O)c2c(c1)OC(C)(C)c1ccc(C)cc1-2 [CBN, cannabinol]
CD8+ T cells [1]; 0.001-0.1 μM
  IFNγ in CD8+ T cells: significantly decreased
Monocytes [2]; 10 μM
  TNFα in monocytes: significantly decreased
Monocytes [3]
  phagocytosis by monocytes: decreasing; also recorded: significantly decreased
CD4+ T cells [4]; 0.001-0.1 μM
  IFNγ in CD4+ T cells: significantly decreased

## C=C(C)[C@@H]1CCC(C)=C[C@H]1c1c(O)cc(CCC)cc1O [CBDV, cannabidivarin]
CD8+ T cells [1]; 0.01 μM
  IFNγ in T cells (FIG. 8A: CD8+ T cells): significantly decreased
CD8+ T cells [5]
  CD25+ activation marker in CD8+ T cells: decreased
  CD69+ activation marker in CD8+ T cells: decreased
Monocytes [6]; 1-10 μM
  IL-6 in monocytes: significantly decreased
Monocytes [7]; 10 μM
  CD80+ co-stimulatory marker in monocytes: significantly decreased
  CD86+ co-stimulatory marker in monocytes: increased
  HLA-DR co-stimulatory marker in monocytes: significantly decreased
Monocytes [8]; 0.01 μM
  IL-1β in monocytes: increased; also recorded: significantly increases
Monocytes [8]; 10 μM
  IL-1β in monocytes: significantly decreased
Monocytes [3]
  phagocytosis by monocytes: significantly decreased

## C/C(=C\CO)CCC[C@H](C)CCC[C@H](C)CCCC(C)C [Phytol A, phytol]
CD8+ T cells [1]; 0.001 μM
  IFNγ in CD8+ T cells: not statistically significant
CD4+ T cells [4]; 0.001 μM
  IFNγ in CD4+ T cells: significantly decreased

## CCCCCc1cc(O)c2c(c1)OC(C)(CCC=C(C)C)C=C2 (stereo not shown) [CBC, cannabichromene]
Monocytes [6]; 10 μM
  IL-6 in monocytes: significantly decreased
Monocytes [2]; 0.1 μM
  TNFα in monocytes: significantly increased
CD8+ T cells [9]
  T cell proliferation in CD8+ T cells: not statistically significant
CD4+ T cells [10]
  T cell proliferation in CD4+ T cells: significantly decreased
Monocytes [7]; 10 μM
  HLA-DR co-stimulatory marker in monocytes: increased
Monocytes [7]; 1-10 μM
  CD86+ co-stimulatory marker in monocytes: increased

## C=C(C)[C@@H]1CCC(C)=C[C@H]1c1c(O)cc(CCCCC)cc1O [CBD, cannabidiol, reference compound]
Monocytes [6]; 10 μM
  IL-6 in monocytes: significantly decreased
Monocytes [8]; 10 μM
  IL-1β in monocytes: significantly decreased
Monocytes [3]
  phagocytosis by monocytes: reduced; also recorded: significantly decreased
